This is an account of results in ChEMBL document CHEMBL4184165, “Unique arginine array improves cytosolic localization of hydrocarbon-stapled peptides” (Bioorg Med Chem, 2018).

pEC50: −log10 of the molar value. Where a SMILES comes first, the peptide text is derived from it. Bridges are numbered along the chain shown (N, C = ends). [ ]: non-standard residue; d: D form. The star is where a group is joined. X1 = CCN(CC)c1ccc2c(-c3ccc(S(=O)(=O)*)cc3S(=O)(=O)[O-])c3ccc(=[N+](CC)CC)cc-3oc2c1; R8 = C=CCCCCCC[C@@](C)(N)C(=O)O; S5 = C=CCCC[C@](C)(N)C(=O)O; βAla = NCCC(=O)O

A short description of data set [1]: Drug uptake in cytosol of human HeLa cells at 500 nM after 30 mins by FCS analysis relative to control. It counts as ADME, subcellular. The note with it: 0.5 h, 0.5 µM.
Data set [2] in a line: Drug uptake in cytosol of human HeLa cells at 500 nM after 30 mins by FCS analysis. It counts as ADME, subcellular. As to conditions: 0.5 h, 0.5 µM.
The test system of another data set is SJSA-1. The experiment in a line: Cytotoxicity in human SJSA1 cells over expressing human DM2 after 24 hrs by CellTiter-Glo assay. As to conditions: SJSA-1, 24 h. The data set is classed as functional, cell-based. On the technique in general: Cellular ATP, detected with luciferase, serves as a proxy for viable cell number.

With `CCN(CC)c1ccc2c(-c3ccc(S(=O)(=O)NCCC(=O)N[C@@H](CC(C)C)C(=O)N[C@@H](CO)C(=O)N[C@@H](CCC(N)=O)C(=O)N[C@@H](CCC(=O)O)C(=O)N[C@H](C(=O)N[C@@H](Cc4ccccc4)C(=O)N[C@]4(C)CCCCCC/C=C/CCC[C@@](C)(C(=O)N[C@@H](CCC(=O)O)C(=O)N[C@@H](CC(N)=O)C(N)=O)NC(=O)[C@H](CC(C)C)NC(=O)[C@H](CC(C)C)NC(=O)[C@H](CCCCN)NC(=O)[C@H](Cc5c[nH]c6ccccc56)NC(=O)[C@H](CC(C)C)NC(=O)[C@H](CC(=O)O)NC4=O)[C@@H](C)O)cc3S(=O)(=O)[O-])c3ccc(=[N+](CC)CC)cc-3oc2c1`, the Drug uptake in data set [1] is on record as 12.4%; in data set [2], 62 nM.

One may read the pEC50 as the EC50 on a negative log10 scale, so that one unit is a factor of ten. Higher therefore signals a low EC50. Regarding `CC(=O)N[C@@H](CC(C)C)C(=O)N[C@@H](CCCNC(=N)N)C(=O)N[C@@H](CCCNC(=N)N)C(=O)N[C@@H](CCC(=O)O)C(=O)N[C@H](C(=O)N[C@@H](Cc1ccccc1)C(=O)N[C@]1(C)CCCCCC/C=C/CCC[C@@](C)(C(=O)N[C@@H](CCCNC(=N)N)C(=O)N[C@@H](CCCNC(=N)N)C(N)=O)NC(=O)[C@H](CC(C)C)NC(=O)[C@H](CCCNC(=N)N)NC(=O)[C@H](CCCCN)NC(=O)[C@H](Cc2c[nH]c3ccccc23)NC(=O)[C@H](CC(C)C)NC(=O)[C@H](CC(=O)O)NC1=O)[C@@H](C)O` (Ac-LRRETF[R8]DLWKRL[S5]RR-NH2; staple (E) 7-14), the pEC50 in the data set on SJSA-1 was 5.49.

`CC(=O)N[C@@H](CC(C)C)C(=O)N[C@@H](CCCNC(=N)N)C(=O)N[C@@H](CCCNC(=N)N)C(=O)N[C@@H](CCC(=O)O)C(=O)N[C@H](C(=O)N[C@@H](Cc1ccccc1)C(=O)N[C@]1(C)CCCCCC/C=C/CCC[C@@](C)(C(=O)N[C@@H](CCCNC(=N)N)C(=O)N[C@@H](CC(N)=O)C(N)=O)NC(=O)[C@H](CC(C)C)NC(=O)[C@H](CCCNC(=N)N)NC(=O)[C@H](CCCCN)NC(=O)[C@H](Cc2c[nH]c3ccccc23)NC(=O)[C@H](CCCNC(=N)N)NC(=O)[C@H](CC(=O)O)NC1=O)[C@@H](C)O` (Ac-LRRETF[R8]DRWKRL[S5]RN-NH2; staple (E) 7-14) gave a pEC50 with SJSA-1 of 5.11.

In turn, `CC(=O)N[C@@H](CC(C)C)C(=O)N[C@@H](CO)C(=O)N[C@@H](CCC(N)=O)C(=O)N[C@@H](CCC(=O)O)C(=O)N[C@H](C(=O)N[C@@H](C)C(=O)N[C@]1(C)CCCCCC/C=C/CCC[C@@](C)(C(=O)N[C@@H](CCCNC(=N)N)C(=O)N[C@@H](CCCNC(=N)N)C(N)=O)NC(=O)[C@H](CC(C)C)NC(=O)[C@H](CCCNC(=N)N)NC(=O)[C@H](CCCNC(=N)N)NC(=O)[C@H](Cc2c[nH]c3ccccc23)NC(=O)[C@H](CC(C)C)NC(=O)[C@H](CCCNC(=N)N)NC1=O)[C@@H](C)O` (Ac-LSQETA[R8]RLWRRL[S5]RR-NH2; staple (E) 7-14) gave a pEC50 with SJSA-1 of 5.32.

Molecule `CC(=O)N[C@@H](CC(C)C)C(=O)N[C@@H](CO)C(=O)N[C@@H](CCC(N)=O)C(=O)N[C@@H](CCC(=O)O)C(=O)N[C@H](C(=O)N[C@@H](Cc1ccccc1)C(=O)N[C@]1(C)CCCCCC/C=C/CCC[C@@](C)(C(=O)N[C@@H](CCCNC(=N)N)C(=O)N[C@@H](CCCNC(=N)N)C(N)=O)NC(=O)[C@H](CC(C)C)NC(=O)[C@H](CCCNC(=N)N)NC(=O)[C@H](CCCNC(=N)N)NC(=O)[C@H](Cc2c[nH]c3ccccc23)NC(=O)[C@H](CC(C)C)NC(=O)[C@H](CCCNC(=N)N)NC1=O)[C@@H](C)O` (Ac-LSQETF[R8]RLWRRL[S5]RR-NH2; staple (E) 7-14) showed a pEC50 with SJSA-1 of 5.72.

The molecule `CC(=O)N[C@@H](CCC(N)=O)C(=O)N[C@@H](CO)C(=O)N[C@@H](CCC(N)=O)C(=O)N[C@@H](CCC(N)=O)C(=O)N[C@H](C(=O)N[C@@H](Cc1ccccc1)C(=O)N[C@]1(C)CCCCCC/C=C/CCC[C@@](C)(C(=O)N[C@@H](CCC(N)=O)C(=O)N[C@@H](CC(N)=O)C(N)=O)NC(=O)[C@H](CC(C)C)NC(=O)[C@H](CC(C)C)NC(=O)[C@H](CCCCN)NC(=O)[C@H](Cc2c[nH]c3ccccc23)NC(=O)[C@H](CC(C)C)NC(=O)[C@H](CC(N)=O)NC1=O)[C@@H](C)O` (Ac-QSQQTF[R8]NLWKLL[S5]QN-NH2; staple (E) 7-14) showed a pEC50 in the data set on SJSA-1 of 4.99.

Regarding `CC(=O)N[C@@H](CCCNC(=N)N)C(=O)N[C@@H](CCCNC(=N)N)C(=O)N[C@@H](CCCNC(=N)N)C(=O)N[C@@H](CCCNC(=N)N)C(=O)N[C@@H](CCCNC(=N)N)C(=O)N[C@@H](Cc1ccccc1)C(=O)N[C@]1(C)CCCCCC/C=C/CCC[C@@](C)(C(=O)N[C@@H](CCC(=O)O)C(=O)N[C@@H](CC(N)=O)C(N)=O)NC(=O)[C@H](CC(C)C)NC(=O)[C@H](CC(C)C)NC(=O)[C@H](CCCCN)NC(=O)[C@H](Cc2c[nH]c3ccccc23)NC(=O)[C@H](CC(C)C)NC(=O)[C@H](CC(=O)O)NC1=O` (Ac-RRRRRF[R8]DLWKLL[S5]EN-NH2; staple (E) 7-14), the pEC50 with SJSA-1 was 5.80.

In the data set on SJSA-1, `CC(=O)N[C@@H](CCCNC(=N)N)C(=O)N[C@@H](CO)C(=O)N[C@@H](CCC(N)=O)C(=O)N[C@@H](CCC(=O)O)C(=O)N[C@@H](CCCNC(=N)N)C(=O)N[C@@H](Cc1ccccc1)C(=O)N[C@]1(C)CCCCCC/C=C/CCC[C@@](C)(C(=O)N[C@@H](CCCNC(=N)N)C(=O)N[C@@H](CCCNC(=N)N)C(N)=O)NC(=O)[C@H](CC(C)C)NC(=O)[C@H](CCCNC(=N)N)NC(=O)[C@H](CCCCN)NC(=O)[C@H](Cc2c[nH]c3ccccc23)NC(=O)[C@H](CC(C)C)NC(=O)[C@H](CC(=O)O)NC1=O` (Ac-RSQERF[R8]DLWKRL[S5]RR-NH2; staple (E) 7-14) had a pEC50 of 5.11.

In the data set with SJSA-1, `CC(=O)N[C@@H](CCCNC(=N)N)C(=O)N[C@@H](CO)C(=O)N[C@@H](CCC(N)=O)C(=O)N[C@@H](CCC(=O)O)C(=O)N[C@@H](CCCNC(=N)N)C(=O)N[C@@H](Cc1ccccc1)C(=O)N[C@]1(C)CCCCCC/C=C/CCC[C@@](C)(C(=O)N[C@@H](CCC(=O)O)C(=O)N[C@@H](CC(N)=O)C(N)=O)NC(=O)[C@H](CC(C)C)NC(=O)[C@H](CCCNC(=N)N)NC(=O)[C@H](CCCNC(=N)N)NC(=O)[C@H](Cc2c[nH]c3ccccc23)NC(=O)[C@H](CC(C)C)NC(=O)[C@H](CCCNC(=N)N)NC1=O` (Ac-RSQERF[R8]RLWRRL[S5]EN-NH2; staple (E) 7-14) showed a pEC50 of 5.14.

In the data set with SJSA-1, `CC(=O)N[C@@H](CCCNC(=N)N)C(=O)N[C@@H](CO)C(=O)N[C@@H](CCC(N)=O)C(=O)N[C@@H](CCCNC(=N)N)C(=O)N[C@@H](CCCNC(=N)N)C(=O)N[C@@H](Cc1ccccc1)C(=O)N[C@]1(C)CCCCCC/C=C/CCC[C@@](C)(C(=O)N[C@@H](CCC(=O)O)C(=O)N[C@@H](CC(N)=O)C(N)=O)NC(=O)[C@H](CC(C)C)NC(=O)[C@H](CC(C)C)NC(=O)[C@H](CCCNC(=N)N)NC(=O)[C@H](Cc2c[nH]c3ccccc23)NC(=O)[C@H](CC(=O)O)NC(=O)[C@H](CCCNC(=N)N)NC1=O` (Ac-RSQRRF[R8]RDWRLL[S5]EN-NH2; staple (E) 7-14) showed a pEC50 of 5.72.

For the molecule `CCN(CC)c1ccc2c(-c3ccc(S(=O)(=O)NCCC(=O)N[C@@H](CC(C)C)C(=O)N[C@@H](CO)C(=O)N[C@@H](CCC(N)=O)C(=O)N[C@@H](CCC(=O)O)C(=O)N[C@H](C(=O)N[C@@H](Cc4ccccc4)C(=O)N[C@]4(C)CCCCCC/C=C/CCC[C@@](C)(C(=O)N[C@@H](CCCNC(=N)N)C(=O)N[C@@H](CCCNC(=N)N)C(N)=O)NC(=O)[C@H](CC(C)C)NC(=O)[C@H](CCCNC(=N)N)NC(=O)[C@H](CCCNC(=N)N)NC(=O)[C@H](Cc5c[nH]c6ccccc56)NC(=O)[C@H](CC(C)C)NC(=O)[C@H](CCCNC(=N)N)NC4=O)[C@@H](C)O)cc3S(=O)(=O)[O-])c3ccc(=[N+](CC)CC)cc-3oc2c1` ({X1-βAla}-LSQETF[R8]RLWRRL[S5]RR-NH2; staple (E) 7-14), the Drug uptake in data set [2] was determined as 284 nM.

In the case of `CCN(CC)c1ccc2c(-c3ccc(S(=O)(=O)NCCC(=O)N[C@@H](CCC(N)=O)C(=O)N[C@@H](CO)C(=O)N[C@@H](CCC(N)=O)C(=O)N[C@@H](CCC(N)=O)C(=O)N[C@H](C(=O)N[C@@H](Cc4ccccc4)C(=O)N[C@]4(C)CCCCCC/C=C/CCC[C@@](C)(C(=O)N[C@@H](CCC(N)=O)C(=O)N[C@@H](CC(N)=O)C(N)=O)NC(=O)[C@H](CC(C)C)NC(=O)[C@H](CC(C)C)NC(=O)[C@H](CCCCN)NC(=O)[C@H](Cc5c[nH]c6ccccc56)NC(=O)[C@H](CC(C)C)NC(=O)[C@H](CC(N)=O)NC4=O)[C@@H](C)O)cc3S(=O)(=O)[O-])c3ccc(=[N+](CC)CC)cc-3oc2c1` ({X1-βAla}-QSQQTF[R8]NLWKLL[S5]QN-NH2; staple (E) 7-14), the Drug uptake was 51.9% in data set [1] and 256 to 260 nM in data set [2].

In the case of `CCN(CC)c1ccc2c(-c3ccc(S(=O)(=O)NCCC(=O)N[C@@H](CCCNC(=N)N)C(=O)N[C@@H](CO)C(=O)N[C@@H](CCC(N)=O)C(=O)N[C@@H](CCC(=O)O)C(=O)N[C@@H](CCCNC(=N)N)C(=O)N[C@@H](Cc4ccccc4)C(=O)N[C@]4(C)CCCCCC/C=C/CCC[C@@](C)(C(=O)N[C@@H](CCC(=O)O)C(=O)N[C@@H](CC(N)=O)C(N)=O)NC(=O)[C@H](CC(C)C)NC(=O)[C@H](CCCNC(=N)N)NC(=O)[C@H](CCCNC(=N)N)NC(=O)[C@H](Cc5c[nH]c6ccccc56)NC(=O)[C@H](CC(C)C)NC(=O)[C@H](CCCNC(=N)N)NC4=O)cc3S(=O)(=O)[O-])c3ccc(=[N+](CC)CC)cc-3oc2c1` ({X1-βAla}-RSQERF[R8]RLWRRL[S5]EN-NH2; staple (E) 7-14), the values for the Drug uptake in data set [1] and in data set [2] were 13.8% and 69 nM, respectively.

In the data set with SJSA-1, `COc1ccc(C2=N[C@@H](c3ccc(Cl)cc3)[C@@H](c3ccc(Cl)cc3)N2C(=O)N2CCNC(=O)C2)c(OC(C)C)c1` [NUTLIN-3] showed a pEC50 of 4.64.
